Measured values from patent US10064797B2, “Topical formulations for UV protection” (TOPGENIX, INC., priority 2014, dated 2018).

Assays:
[1] = UV absorption spectra of the compounds, avobenzone and their combinations; format: physicochemical; conditions: for UV absorption: 320 nm and 400 nm, each compound alone
Description: (§1) In both cases, the absorptivity of these two compounds were studied. In addition, photostability of these two compounds were also assessed by taking a second UV absorption spectra after exposing the compounds to UV. Photostability of sun screening compounds are of critical importance as a compound would be completely ineffective if they lose their UV absorptive qualities shortly after being exposed to solar radiation.
Avobenzone is an example for a known chemical UV absorber that can be combined.

[2] = Photostability: UV absorption spectra before and after UV exposure; format: physicochemical; conditions: before vs after UV exposure; 290 nm to 400 nm; FIGS. 2 and 4
Description: as §1
Turning to FIG. 2, this set of spectra show the effects of UV exposure on 3-hydroxy-2-methoxy-cyclo-2-enone, avobenzone, and combinations thereof over a wavelength range of 290 nm and 400 nm. A first spectrum 210 and a second spectrum 212 are for avobenzone before and after UV exposure. A third spectrum 220 and a fourth spectrum 222 are for 3-hydroxy-2-methoxy-cyclo-2-enone before and after UV exposure, respectively. A fifth spectrum 230 and a sixth spectrum 232 correspond to a combination of 3-hydroxy-2-methoxy-cyclo-2-enone and avobenzone at a ratio of 1:2 before and after UV exposure, respectively. Finally, a seventh spectrum 240 and an eighth spectrum 242 correspond to a combination of 3-hydroxy-2-methoxy-cyclo-2-enone and avobenzone at a ratio of 2:1 before and after UV exposure, respectively.
A first spectrum 410 and a second spectrum 412 are for avobenzone before and after UV exposure. […]

| Compound | UV absorption ([1]; FIG. 1) | absorbance at 320 nm relative to strongest absorbance ([1]; at 320 nm, FIG. 1) | wavelength of strongest (maximum) UV absorption ([1]; compound alone) | change of UV absorption after UV exposure (photostability) [2] |
| --- | --- | --- | --- | --- |
| 3-Hydroxy-2-methoxy-cyclo-2-enone | relatively low | drops off by approximately half | around 262 nm | dropped overall |
| COc1ccc(C(=O)CC(=O)c2ccc(C(C)(C)C)cc2)cc1 [avobenzone, reference compound] | relatively low | – | – | dropped overall |
